In patent US20180250232A1, “PROCESS FOR PREPARING SPRAY DRIED SOLID DISPERSIONS OF (S)-N-(3-(6-ISOPROPOXYPYRIDIN-3-YL)-1H-INDAZOL-5-YL)-1-(2-(4-(4-(1-METHYL-1H-1,2,4-TRIAZOL-3-YL)PHENYL)-3,6-DIHYDROPYRIDIN-1(2H)-YL)-2-OXOETHYL)-3-(METHYLTHIO)PYRROLIDINE-3-CARBOXAMIDE FOR PHARMACEUTICAL PREPARATIONS” (Merck Sharp & Dohme Corp., priority 2015, published 2018):

Test: polymorph studies / competition slurry experiments
Assay type: physicochemical
Experimental: Preliminary polymorph screening for (S)—N-(3-(6-isopropoxypyridin-3-yl)-1H-indazol-5-yl)-1-(2-(4-(4-(1-methyl-1H-1,2,4-triazol-3-yl)phenyl)-3,6-dihydropyridin-1(2H)-yl)-2-oxoethyl)-3-(methylthio)pyrrolidine-3-carboxamide were conducted by solvent-mediated slurry experiments in 10 different solvents or solvent mixtures using the amorphous compound as the starting material.

## CS[C@@]1(C(=O)Nc2ccc3[nH]nc(-c4ccc(OC(C)C)nc4)c3c2)CCN(CC(=O)N2CC=C(c3ccc(-c4ncn(C)n4)cc3)CC2)C1 [hydrate form 2, (S)—N-(3-(6-isopropoxypyridin-3-yl)-1H-indazol-5-yl)-1-(2-(4-(4-(1-methyl-1H-1,2,4-triazol-3-yl)phenyl)-3,6-dihydropyridin-1(2H)-yl)-2-oxoethyl)-3-(methylthio)pyrrolidine-3-carboxamide crystalline free base hydrate form 2]
Hydrate form 1 and 2 as seeds in H2O/methanol mixture (H2O activity of 0.5), room temperature and 4° C.
  more stable form in competition slurry experiments: more stable form in both experiments
Room temperature
  stability of crystalline form (polymorph studies): most stable crystalline form at room temperature
